Assay results taken from patent US11578300B2, “Test apparatus” (Hitachi High-Tech Corporation, priority 2014, dated 2023).
Values after ≈ are worked out from the molar mass of the structure shown.

How the values were obtained:
Type in all cases: cell-based
E. coli (ATCC25922) = test: susceptibility test with respect to ampicillin by microscopic observation (bacteriological test apparatus)
Description: After the bacterial suspension is introduced into the culture plate 18, the bacterial suspension is in a state of being mixed with the culture liquid which is included in each of the wells, and the temperature controller 16 is set to a temperature of approximately 35° C. Culture is performed by performing incubation such that the temperature of each of the wells in the culture plate 18 is in the vicinity of the set temperature. Then, while performing the incubation, the bacteria included in each of the wells are monitored through the microscopic observation optical system. The microscopic observation (monitoring) may be performed for a set period of time from the start of the incubation till the end thereof by continuously monitoring the state of bacterial growth. Otherwise, a suitable time may be set and monitoring is performed every set time thereof so as to be able to be compared with the monitored result at the time of starting the incubation. In addition, similar to the bacteriological test apparatus in the related art, the turbidity of each of the wells may be measured through the turbidity measurement optical system while incubating the culture plate 18. The measured result may be compared with the monitored result of the microscopic observation optical system. FIGS. 16A to 18C are diagrams illustrating results of a susceptibility test with respect to ampicillin of E. coli (ATCC25922) performed by using the bacteriological test apparatus of the present invention. FIGS. 16A to 18C are images obtained by culturing the E. coli in Mueller-Hinton culture mediums respectively containing ampicillin having the concentrations of 0 μg/mL, 2 μg/mL, and 16 μg/mL, performing image processing of a line extracting filter and the like onto microscopic images respectively captured after (a) 0 hours, (b) 3 hours, and (c) 24 hours from the start of culture, and performing binarization. The target objects appearing black in FIGS. 16A to 18C are the E. coli. […] FIG. 19 is a graph obtained by calculating the areas of the E. coli in the images of FIGS. 16A to 18C and plotting the areas thereof periodically. […] In this manner, it was possible to obtain the MIC with respect to the ampicillin of the used E. coli based on the graph achieved by monitoring the change in the areas of the bacteria in the images. It could be confirmed that the antimicrobial susceptibility test which requires overnight culture in the related art could be carried out in a short time by using the bacteriological test apparatus of the present invention.

E coli (ATCC35218) = test: susceptibility test of E coli treated with cefazolin by microscopic observation (bacteriological test apparatus); conditions: for growth of the E coli in images / bacterial number in a microscopic image: after three hours; for bacterial number in a microscopic image: FIG. 22A; for average value of the areas per one bacterium: FIG. 22C
Description: After the bacterial suspension is introduced into the culture plate 18, the bacterial suspension is in a state of being mixed with the culture liquid which is included in each of the wells, and the temperature controller 16 is set to a temperature of approximately 35° C. Culture is performed by performing incubation such that the temperature of each of the wells in the culture plate 18 is in the vicinity of the set temperature. Then, while performing the incubation, the bacteria included in each of the wells are monitored through the microscopic observation optical system. The microscopic observation (monitoring) may be performed for a set period of time from the start of the incubation till the end thereof by continuously monitoring the state of bacterial growth. Otherwise, a suitable time may be set and monitoring is performed every set time thereof so as to be able to be compared with the monitored result at the time of starting the incubation. In addition, similar to the bacteriological test apparatus in the related art, the turbidity of each of the wells may be measured through the turbidity measurement optical system while incubating the culture plate 18. The measured result may be compared with the monitored result of the microscopic observation optical system. FIGS. 20A-20D and 21A-21D are diagrams illustrating results of a susceptibility test of E coli (ATCC35218) treated with cefazolin performed by using the bacteriological test apparatus of the present invention. FIGS. 20A to 20D are microscopic images which are obtained by culturing the E. coli in Mueller-Hinton culture mediums respectively containing cefazolin having concentrations of 0 μg/mL, 0.5 μg/mL, 1 μg/mL, and 2 μg/mL, and captured after three hours from the start of culture. The target objects vaguely appearing in the images are the bacteria. FIGS. 21A to 21D are images obtained by respectively performing image processing onto the images of FIGS. […], performing edge detection, and performing binarization thereafter. The target objects appearing black in FIGS. 21A-21D are the E. coli. […] FIGS. 22A-22F are graphs obtained by extracting the feature values of the bacteria from the image of FIGS. 20A-20D. FIG. 22A is a graph illustrating the bacterial number in a microscopic image. […] FIG. 22B is a graph illustrating the areas of the bacteria in the microscopic image. FIG. 22C is a graph illustrating the average values of the areas per one bacterium obtained based on FIGS. 22A and 22B. […] As it also could be confirmed in FIGS. 21A-21D, the facts thereof indicate that the bacteria are elongated due to effect of cefazolin. FIGS. 22D to 22F are graphs respectively showing the perimeter length, the circularity, and the solidity (an index showing how the shape is close to a circle) per one bacterium. As the results of the elongated bacteria, it could be confirmed that the perimeter length increased in FIG. 22D, the circularity defined through […] was lowered in FIG. 22E, and the solidity defined through the area/the projection area is lowered in FIG. 22F.

[1] = system: Enterococcus faecalis (ATCC29212); test: susceptibility test with respect to levofloxacin by microscopic observation (bacteriological test apparatus); conditions: Mueller-Hinton culture medium, from areas of bacteria in images over time, read-out: minimum inhibitory concentration (MIC)
Description: After the bacterial suspension is introduced into the culture plate 18, the bacterial suspension is in a state of being mixed with the culture liquid which is included in each of the wells, and the temperature controller 16 is set to a temperature of approximately 35° C. Culture is performed by performing incubation such that the temperature of each of the wells in the culture plate 18 is in the vicinity of the set temperature. Then, while performing the incubation, the bacteria included in each of the wells are monitored through the microscopic observation optical system. The microscopic observation (monitoring) may be performed for a set period of time from the start of the incubation till the end thereof by continuously monitoring the state of bacterial growth. Otherwise, a suitable time may be set and monitoring is performed every set time thereof so as to be able to be compared with the monitored result at the time of starting the incubation. In addition, similar to the bacteriological test apparatus in the related art, the turbidity of each of the wells may be measured through the turbidity measurement optical system while incubating the culture plate 18. The measured result may be compared with the monitored result of the microscopic observation optical system. FIGS. 10A to 13D are diagrams illustrating the results obtained by applying the present invention. […]

**Q.** Which results are given for `CC1(C)S[C@@H]2[C@H](NC(=O)[C@H](N)c3ccccc3)C(=O)N2[C@H]1C(=O)O` [ampicillin]?
**A.** areas of the E. coli in the images (E. coli (ATCC25922); ampicillin 2 μg/mL, FIG. 19 graph (ii)): increased with the lapse of time; growth of the E. coli in images (E. coli (ATCC25922); ampicillin 2 μg/mL, after 24 hours, FIG. 17C): grew after 24 hours; shape of the E. coli in images (E. coli (ATCC25922); ampicillin 2 μg/mL, after three hours, FIG. 17B): elongated states; areas of the E. coli in the images (E. coli (ATCC25922); ampicillin 16 μg/mL, FIG. 19 graph (iii)): seldom increased; growth of the E. coli in images (E. coli (ATCC25922); ampicillin 16 μg/mL, FIGS. 18A-18C): did not grow without being elongated

**Q.** What does the source list for `Cc1nnc(SCC2=C(C(=O)O)N3C(=O)[C@@H](NC(=O)Cn4cnnn4)[C@H]3SC2)s1` [cefazolin]?
**A.** growth of the E coli in images (E coli (ATCC35218); cefazolin 0.5 μg/mL, FIG. 21B): grew after three hours; bacterial number in a microscopic image (E coli (ATCC35218); cefazolin 0.5 μg/mL): increased through growth; average value of the areas per one bacterium (E coli (ATCC35218); cefazolin 0.5 μg/mL, compared to no antibacterial agent): the area increased; average value of the areas per one bacterium (E coli (ATCC35218); cefazolin 1 μg/mL): further increased; growth of the E coli in images (E coli (ATCC35218); cefazolin 1 μg/mL, FIG. 21C): did not quite grow after three hours and was elongated; bacterial number in a microscopic image (E coli (ATCC35218); cefazolin 1 μg/mL): did not quite grow; average value of the areas per one bacterium (E coli (ATCC35218); cefazolin 2 μg/mL): further increased; growth of the E coli in images (E coli (ATCC35218); cefazolin 2 μg/mL, FIG. 21D): did not quite grow after three hours and was elongated; bacterial number in a microscopic image (E coli (ATCC35218); cefazolin 2 μg/mL): did not quite grow; perimeter length per one bacterium (E coli (ATCC35218); elongated bacteria, concentration not given, FIG. 22D): increased; circularity per one bacterium (E coli (ATCC35218); elongated bacteria, concentration not given, FIG. 22E): lowered; solidity per one bacterium (E coli (ATCC35218); elongated bacteria, concentration not given, FIG. 22F): lowered

**Q.** `C[C@H]1COc2c(N3CCN(C)CC3)c(F)cc3c(=O)c(C(=O)O)cn1c23` [levofloxacin] was tested. Which MIC [1] did it give?
**A.** 1 µg/mL (≈ 2.77 µM)
